In the assay the target is Cdc7/ASK (Homo sapiens, UniProt O00311). The assay can be described thus: Cdc7 biochemical assay Method 1: 384 well ELISA, MCM2 whole protein substrate, Phospho MCM2 (S53) antibody. Set-up: purchased. The note with it: ATP 2 μM, 90 minutes, read-out: Biochemical method 1 (pIC50) (converted). How it is done:
This protocol describes a method for assaying Cdc7/ASK for activity. The assay is a 384 well ELISA assay, utilising a whole protein substrate (MCM2) and an antibody against Phospho MCM2 (S53). This site is thought to be specific to Cdc7/ASK phosphorylation and the assay has been validated using knockout mutants.
• TBS: 25 mM Tris pH 7.2, 150 mM NaCl. (Dilute 10× stock by 1:10). • Wash Buffer: TBS+0.05% Tween 20. (Add 100 mL 1 M Tris pH 7.2, 120 mL 5 M NaCl and 2 mL 100% Tween 20 per 4 L). • Kinase Reaction Buffer: 50 mM Tris-HCl pH 8.5, 10 mM MgCl2, 1 mM DTT. (Dilute 10× stock by 1:10 and add 100 μL 1M DTT per 100 mL prior to assay). • Diethanolamine Buffer: 1 M diethanolamine pH 9.8, 0.5 mM MgCl2. • Stop Solution: 1 M NaOH. • MCM2 was expressed and purified in-house and used in the assay at a final assay concentration of 436 ng/well. • Cdc7/ASK is purchased from commercial suppliers and used in the assay at a final assay concentration of 37.97 ng/well or 20.63 nM. • ATP used as a final assay concentration of 2 μM. • Primary Antibody: Rabbit anti-Phospho MCM2 (S53 Antibody (BL3353)), is purchased from commercial suppliers at 0.2 mg/mL and used at a final assay concentration by diluting 1:800 in TBS. • Secondary Antibody: Anti-Rabbit/AP Antibody is supplied is purchased from commercial suppliers at 1 mg/mL and used at a final assay concentration by diluting 1:2000 in TBS. • Development Reagent: Dissolve one 20 mg PNPP tablet (Sigma, product N2765, 20 mg per tablet) per 20 mL diethanolamine Buffer (or one 5 mg PNPP tablet per 5 mL diethanolamine buffer). Cover in foil and leave shaking on a roller shaker at room temperature for up to an hour to dissolve. Methods • 1. Add 20 μL 1× working stock of Substrate (MCM2) in TBS to all wells of a clear, 384 well, Nickel-chelate microplate to give a final concentration of 250 ng/well. Incubate at room temperature for at least 1 hour. Plates can be pre-coated for 1 hour and stored at 4° C. for up to 8 days. • 2. Wash with TBS+0.05% Tween 20 (80 μL x 3). • 3. Add 2 μL 10× test compounds, including the positive control, in 40% DMSO/water to ‘test’ wells. Add 2 μL 40% DMSO/water to ‘control’ and ‘blank’ wells. The final DMSO concentration will be 4%. • 4. Add 13 μL CDCl7/ASK Kinase (1.5× stock) in Kinase Reaction Buffer to ‘test’ and ‘control’ wells to give a final concentration of […]. Add 13 μL Kinase Reaction Buffer to ‘blank’ wells. • 5. Add 5 μL ATP (4× stock) in Kinase Reaction Buffer to all wells to give a final concentration of 2 μM. • 6. Incubate at room temperature for 90 minutes. • 7. Wash with TBS+0.05% Tween 20 (80 μL x 3). • 8. Add 20 μL 1× working solution of Primary Antibody in TBS to all wells. Incubate at room temperature for 30 minutes. • 9. Wash with TBS+0.05% Tween 20 (80 μL x 3). • 10. Add 20 μL 1× working solution of Secondary Antibody in TBS to all wells. Incubate at room temperature for 30 minutes. • 11. Wash with TBS+0.05% Tween 20 (80 μL x 3). • 12. Add 20 μL 1× Development Reagent to all wells. • 13. Incubate at room temperature for 2 hours. Stop the reaction by adding 20 μL Stop Solution to all wells and record Absorbance on a Pherastar plate reader.
Percentage inhibition values were calculated from absorbance values, using the no compound (DMSO) and no enzyme control values as 0% and 100% inhibition, respectively. IC50 determination was performed with ExcelFit software (IDBS) using curve fit 205. Z′ factors were determined for each plate tested and were all above 0.5.
Sequence of Cdc7/ASK (O00311 whole entry): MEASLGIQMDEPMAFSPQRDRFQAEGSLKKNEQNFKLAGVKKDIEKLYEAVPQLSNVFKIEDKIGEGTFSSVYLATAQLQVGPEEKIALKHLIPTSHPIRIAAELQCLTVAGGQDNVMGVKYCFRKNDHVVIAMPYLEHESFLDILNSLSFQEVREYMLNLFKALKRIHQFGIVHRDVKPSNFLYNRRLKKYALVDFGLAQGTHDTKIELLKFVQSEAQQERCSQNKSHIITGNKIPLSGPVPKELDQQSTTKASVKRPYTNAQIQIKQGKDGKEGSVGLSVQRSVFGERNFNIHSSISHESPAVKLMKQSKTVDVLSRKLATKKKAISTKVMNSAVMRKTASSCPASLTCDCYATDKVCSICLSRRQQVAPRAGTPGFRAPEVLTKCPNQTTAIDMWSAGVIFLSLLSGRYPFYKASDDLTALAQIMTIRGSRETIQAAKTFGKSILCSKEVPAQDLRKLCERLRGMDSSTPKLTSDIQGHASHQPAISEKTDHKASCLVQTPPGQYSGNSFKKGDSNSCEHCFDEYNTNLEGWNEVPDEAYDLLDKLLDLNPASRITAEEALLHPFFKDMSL
Sequence of Cdc7/ASK (Q9UBU7 whole entry partner): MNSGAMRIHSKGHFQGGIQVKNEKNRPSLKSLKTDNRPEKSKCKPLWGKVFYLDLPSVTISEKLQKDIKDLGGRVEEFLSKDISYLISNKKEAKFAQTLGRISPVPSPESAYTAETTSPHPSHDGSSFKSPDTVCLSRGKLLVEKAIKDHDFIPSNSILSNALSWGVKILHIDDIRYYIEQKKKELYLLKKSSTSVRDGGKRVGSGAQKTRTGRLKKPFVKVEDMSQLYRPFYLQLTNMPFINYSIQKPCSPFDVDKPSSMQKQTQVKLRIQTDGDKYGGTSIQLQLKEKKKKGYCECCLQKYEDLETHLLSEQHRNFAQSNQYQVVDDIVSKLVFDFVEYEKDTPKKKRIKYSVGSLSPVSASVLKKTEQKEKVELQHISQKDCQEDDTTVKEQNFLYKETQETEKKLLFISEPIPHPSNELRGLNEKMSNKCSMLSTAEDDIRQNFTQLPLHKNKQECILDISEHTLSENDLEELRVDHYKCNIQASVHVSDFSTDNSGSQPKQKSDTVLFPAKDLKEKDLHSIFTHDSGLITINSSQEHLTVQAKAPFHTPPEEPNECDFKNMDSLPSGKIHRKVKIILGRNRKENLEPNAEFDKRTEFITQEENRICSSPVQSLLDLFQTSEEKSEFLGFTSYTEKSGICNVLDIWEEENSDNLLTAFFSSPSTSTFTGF
Turning to `Cc1ncsc1-c1nc(C2CCN(C(=O)OC(C)(C)C)CC2)c(Cl)c(=O)[nH]1` [Compound 1, tert-butyl 4-[5-chloro-2-(4-methylthiazol-5-yl)-6-oxo-1H-pyrimidin-4-yl]piperidine-1-carboxylate], the IC50 was 0.229 µM. As for `Cc1ncsc1-c1nc(C2CCOCC2)c(Br)c(=O)[nH]1` [Compound 3, 5-bromo-2-(4-methylthiazol-5-yl)-4-tetrahydropyran-4-yl-1H-pyrimidin-6-one], the figure is 0.0575 µM; as for `Cc1nc(O)sc1-c1nc(C2CCOCC2)c(Cl)c(=O)[nH]1` [Compound 5, 5-chloro-2-(2-hydroxy-4-methyl-thiazol-5-yl)-4-tetrahydropyran-4-yl-1H-pyrimidin-6-one], 0.126 µM. Under `Cc1ncsc1-c1nc(C2CCOCC2)c(I)c(=O)[nH]1` [Compound 7, 5-Iodo-2-(4-methylthiazol-5-yl)-4-tetrahydropyran-4-yl-1H-pyrimidin-6-one] stands 0.245 µM; under `O=c1[nH]c(-c2cncs2)nc(C2CCOCC2)c1Cl` [Compound 9, 5-chloro-4-tetrahydropyran-4-yl-2-thiazol-5-yl-1H-pyrimidin-6-one], 0.562 µM. With `Cn1nccc1-c1nc(C2CCOCC2)c(Cl)c(=O)[nH]1` [Compound 10, 5-chloro-2-(2-methylpyrazol-3-yl)-4-tetrahydropyran-4-yl-1H-pyrimidin-6-one], the IC50 is 0.0933 µM. As for `Cc1nnsc1-c1nc(C2CCOCC2)c(Cl)c(=O)[nH]1` [Compound 11, 5-chloro-2-(4-methylthiadiazol-5-yl)-4-tetrahydropyran-4-yl-1H-pyrimidin-6-one], the figure is 0.692 µM; as for `Cc1ncsc1-c1nc(C2CCOCC2)c(C#N)c(=O)[nH]1` [Compound 18, 2-(4-methylthiazol-5-yl)-6-oxo-4-tetrahydropyran-4-yl-1H-pyrimidine-5-carbonitrile], 0.0603 µM.

In the case of `Cc1ncsc1-c1nc(C2CCN(C(=O)C3CC3(F)F)CC2)c(Cl)c(=O)[nH]1` (stereo not shown) [Compound 19, 5-chloro-4-[1-(2,2-difluorocyclopropanecarbonyl)-4-piperidyl]-2-(4-methylthiazol-5-yl)-1H-pyrimidin-6-one], the IC50 was 0.0407 µM.

Take `Cc1ncsc1C(=O)N1CCC(c2nc(-c3scnc3C)[nH]c(=O)c2Cl)CC1` [Compound 20, 5-chloro-4-[1-(4-methylthiazole-5-carbonyl)-4-piperidyl]-2-(4-methylthiazol-5-yl)-1H-pyrimidin-6-one]: the IC50 was 0.00447 µM.

`Cc1ncsc1-c1nc(C2CCN(C(=O)c3cscn3)CC2)c(Cl)c(=O)[nH]1` [Compound 21, 5-chloro-2-(4-methylthiazol-5-yl)-4-[1-(thiazole-4-carbonyl)-4-piperidyl]-1H-pyrimidin-6-one]: the IC50 is 0.00398 µM. Under `Cc1cc(C(=O)N2CCC(c3nc(-c4scnc4C)[nH]c(=O)c3Cl)CC2)[nH]n1` [Compound 22, 5-chloro-4-[1-(3-methyl-1H-pyrazole-5-carbonyl)-4-piperidyl]-2-(4-methylthiazol-5-yl)-1H-pyrimidin-6-one] stands 0.00437 µM; under `Cc1cc(C(=O)N2CCC(c3nc(-c4scnc4C)[nH]c(=O)c3Cl)CC2)n(C)n1` [Compound 24, 5-chloro-4-[1-(2,5-dimethylpyrazole-3-carbonyl)-4-piperidyl]-2-(4-methylthiazol-5-yl)-1H-pyrimidin-6-one], 0.00398 µM.

As for `Cc1ncsc1-c1nc(C2CCN(C(=O)c3ccnnc3)CC2)c(Cl)c(=O)[nH]1` [Compound 26, 5-chloro-2-(4-methylthiazol-5-yl)-4-[1-(pyridazine-4-carbonyl)-4-piperidyl]-1H-pyrimidin-6-one], the IC50 is 0.00166 µM. As for `Cc1ncsc1-c1nc(C2CCN(CC(C)C)CC2)c(Cl)c(=O)[nH]1` [Compound 27, 5-chloro-4-(1-isobutyl-4-piperidyl)-2-(4-methylthiazol-5-yl)-1H-pyrimidin-6-one], the figure is 0.0562 µM; as for `Cc1ncsc1-c1nc(N2CCCNC(=O)C2)c(Cl)c(=O)[nH]1` [Compound 34, 4-[5-chloro-2-(4-methylthiazol-5-yl)-6-oxo-1H-pyrimidin-4-yl]-1,4-diazepan-2-one], 0.158 µM.
